Data set [1] in a line: Relative solubilities in water, HCl and methanol. The format is physicochemical.
The nature of data set [2]: Hygroscopicity: rate of moisture absorption, Integrated Microbalance System. The settings on record: for % Weight Gain (Moisture Absorption): 25 °C; for hygroscopicity: statement in words, upon storage. The format is physicochemical. The protocol:
The rate of moisture absorption of Compound B and Compound C were tested individually in an Integrated Microbalance System, MODEL MB 300 G (VTI Corporation, Hialeah, Florida) using the accompanying Software Manual. Table 2(a) [table]

The mark [3] stands for this setting: organic solvent or mixture, Solvent: methanol.

By solubility is commonly meant how much of the substance goes into solution per volume.

For `CCCC1(CCC)CCC2(CCN(CCCN(CC)CC)C2)CC1.O=C(O)/C=C\C(=O)O.O=C(O)/C=C\C(=O)O` [Compound C, N,N-diethyl-8,8-dipropyl-2-azaspiro[4.5]decane-2-propanamine dimaleate], the solubility in data set [1] (Solvent: 0.1% HCl), in data set [1] (Solvent: Water) and in data set [1] (setting [3]) was above 100 mg/mL in each case. The “% Weight Gain (Moisture Absorption)” value in data set [2] (0 % relative humidity) is 0%; in data set [2] (10 % relative humidity), -0.21%; in data set [2] (15 % relative humidity), -0.18%; in data set [2] (20 % relative humidity) it was -0.08%; in data set [2] (25 % relative humidity), -0.12%; in data set [2] (30 % relative humidity) it was -0.08%. The “% Weight Gain (Moisture Absorption)” value in data set [2] (35 % relative humidity) is -0.08%; in data set [2] (40 % relative humidity), -0.08%; in data set [2] (45 % relative humidity) it was -0.05%; in data set [2] (50 % relative humidity) it was -0.04%; in data set [2] (55 % relative humidity), 0.04%; in data set [2] (60 % relative humidity), 0.1%. Further, the “% Weight Gain (Moisture Absorption)” value in data set [2] (65 % relative humidity) is listed as 0.18%; in data set [2] (70 % relative humidity), 0.41%; in data set [2] (75 % relative humidity), 0.56%; in data set [2] (80 % relative humidity), 0.89%; in data set [2] (85 % relative humidity), 1.70%; in data set [2] (90 % relative humidity), 5.37%. For the same compound, in data set [2] (95 % relative humidity), the “% Weight Gain (Moisture Absorption)” value amounted to 42.88%. The hygroscopicity entry in data set [2] is given as “far less hygroscopic”.

`CCCC1(CCC)CCC2(CCN(CCCN(CC)CC)C2)CC1.Cl.Cl` [Compound B, N,N-diethyl-8,8-dipropyl-2-azaspiro[4.5]decane-2-propanamine dihydrochloride, reference compound]: the solubility in data set [1] (Solvent: 0.1% HCl), in data set [1] (Solvent: Water) and in data set [1] (setting [3]) was above 100 mg/mL throughout. Besides, the “% Weight Gain (Moisture Absorption)” value stood at 0% in data set [2] (0 % relative humidity); 0.20% in data set [2] (10 % relative humidity); 1.81% in data set [2] (15 % relative humidity); 2.17% in data set [2] (20 % relative humidity); 2.84% in data set [2] (25 % relative humidity); 3.74% in data set [2] (30 % relative humidity). The “% Weight Gain (Moisture Absorption)” value was determined as 3.15% in data set [2] (35 % relative humidity); 3.30% in data set [2] (40 % relative humidity); 4.74% in data set [2] (45 % relative humidity); 5.49% in data set [2] (50 % relative humidity); 9.07% in data set [2] (55 % relative humidity); 9.26% in data set [2] (60 % relative humidity). In addition, the “% Weight Gain (Moisture Absorption)” value in data set [2] (65 % relative humidity) is given as 9.50%; in data set [2] (70 % relative humidity), 15.47%; in data set [2] (75 % relative humidity), 31.30%; in data set [2] (80 % relative humidity), 36.53%; in data set [2] (85 % relative humidity) it was 44.16%. The hygroscopicity result in data set [2] is given as “hygroscopic”.

These data come from EP0753512B1, “N,N,-diethyl-8,8-dipropyl-2-azaspiro[4.5]decane-2-propanamin] dimaleate salt” (AnorMED Inc, priority 1995, dated 1997).
